SMILES strings stand for the structures. Structures can show the parent of a compound that is named as a salt.

Assay type in all cases: in vivo
Test [1] concerns Rumex obtusifolius L. (broadleaf dock, RUMOB). Put plainly: Postemergence herbicidal activity under field conditions in pastures, visual weed control. As for the experimental part:
(§1) These trials were conducted under field conditions in Ibague, Colombia; Geisenbrunn, Germany; and Montarges, France. Trial sites were located in commercially grown fields of common rice (Oryza sativa) or permanent pastures. The rice and pasture crops were grown using normal cultural practices for fertilization, seeding, and maintenance to ensure good growth of the crop and the weeds. The trials were conducted using normal research methodology. Trial plots were 2-3 meters (m) wide by 6 m long. All treatments were applied using a randomized complete block trial design with 3 to 4 replications per treatment. The trial sites had naturally occurring populations of weeds. The weed spectrum included, but was not limited to, Cyperus iria L. (rice flatsedge, CYPIR), Eclipta prostrata (L.) L. (eclipta, ECLAL), Ludwigia linifolia (ludwigia, LUDLI), Taraxacum officinale G. H. Weber ex Wiggers (dandelion, TAROF), Rumex obtusifolius L. (broadleaf dock, RUMOB) and Urtica dioica L. (common nettle, URTDI). The plots were treated with a postemergence foliar application 15 to 20 days after emergence of the rice or during the normal timing of herbicide application used for weed control in pastures/grasslands.
(§2) Treatments consisted of tank mixes of commercially available formulations of aminopyralid triisopropanolammonium salt (MILESTONE 240SL), triclopyr butotyl (GARLON4 480EC) and an experimental formulation of the aminopyralid potassium salt (GF-389), with all rice treatments tankmixed with adjuvant (CARRIER 80EC) at 0.5% volume per volume (vol/vol) but no adjuvant was used in any of the pasture treatments. The application volume was 200 liters per hectare (L/ha) of water. All applications were made using precision gas hand sprayers using a 2 m boom using flat fan (8002) nozzles to broadcast the treatments over the top of the target crop (rice and pastures) and weeds.
(§3) The treated plots and control plots were rated blind at various intervals after application. Ratings were based of Percent (%) Visual weed control, where 0 corresponds to no injury and 100 corresponds to complete kill.
(§4) Colby's equation was used to determine the herbicidal effects expected from the mixtures (Colby, S. R. Calculation of the synergistic and antagonistic response of herbicide combinations. Weeds 1967 15, 20-22).
(§5) The following equation was used to calculate the expected activity of mixtures containing two active ingredients, A and B:
(§6) A=observed efficacy of active ingredient A at the same concentration as used in the mixture;
(§7) B=observed efficacy of active ingredient B at the same concentration as used in the mixture.

Test [2] has as its system Taraxacum officinale G. H. Weber ex Wiggers (dandelion, TAROF). Described as above. As to conditions: for Visual Weed Control (%) TAROF 178 DAA Obs: first 178 DAA column; for Visual Weed Control (%) TAROFI 178 DAA Obs: second 178 DAA column. On the procedure:
as §1, §2, §3, §4, §5, §6, §7

For test [3], the system named is Urtica dioica L. (common nettle, URTDI). The test is described as above. On the procedure: as §1, §2, §3, §4, §5, §6, §7
Test [4] concerns Cyperus iria L. (rice flatsedge, CYPIR). Briefly: Postemergence herbicidal activity under field conditions in rice, visual weed control. On the procedure: as §1, §2, §3, §4, §5, §6, §7
Test [5] relates to Eclipta prostrata (L.) L. (eclipta, ECLAL). The description is as above. On the procedure:
as §1, §2, §3, §4, §5, §6, §7

Test [6] deals with Ludwigia linifolia (ludwigia, LUDLI). The test is described as above. As for the experimental part:
as §1, §2, §3, §4, §5, §6, §7

Regarding `Nc1cc(Cl)nc(C(=O)O)c1Cl` [Aminopyralid potassium salt, 4-amino-3,6-dichloro-2-pyridinecarboxylic acid], the “Visual Weed Control (%) RUMOB 13 DAA Obs” value in test [1] (aminopyralid 60 g ae/ha alone) worked out at 82%. For the same compound, the “Visual Weed Control (%) TAROF 13 DAA Obs” value in test [2] (first TAROF column, aminopyralid 60 g ae/ha alone) is reported as 57%. Besides, in test [2] (second TAROF column, aminopyralid 60 g ae/ha alone), the “Visual Weed Control (%) TAROF 13 DAA Obs” value was 45%. Moreover, in test [2] (aminopyralid 60 g ae/ha alone), the “Visual Weed Control (%) TAROF 122 DAA Obs” value was 80%, the “Visual Weed Control (%) TAROF 178 DAA Obs” value is on record as 73% and the “Visual Weed Control (%) TAROFI 178 DAA Obs” value turned out to be 73%. Moreover, in test [2] (378 DAA, first TAROF column, aminopyralid 60 g ae/ha alone), the “Visual Weed Control (%) TAROF 378 DAA Obs” value is 40%. In test [2] (378 DAA, second TAROF column, aminopyralid 60 g ae/ha alone), the “Visual Weed Control (%) TAROF 378 DAA Obs” value turned out to be 40%. Also, in test [3] (aminopyralid 60 g ae/ha alone), the “Visual Weed Control (%) URTDI 342 DAA Obs” value came to 17%.

Consider `Nc1cc(Cl)nc(C(=O)O)c1Cl` [Aminopyralid triisopropanolammonium salt, 4-amino-3,6-dichloro-2-pyridinecarboxylic acid], for which the results for the “Visual Weed Control (%) CYPIR 11 DAA Obs” value in test [4] (aminopyralid 8 g ae/ha alone) and in test [4] (aminopyralid 24 g ae/ha alone) were 3% and 23%, respectively. For the same compound, the “Visual Weed Control (%) CYPIR 18 DAA Obs” value in test [4] (aminopyralid 8 g ae/ha alone) is recorded as 8%; in test [4] (aminopyralid 16 g ae/ha alone), 25%. Moreover, the “Visual Weed Control (%) ECLAL 11 DAA Obs” value in test [5] (aminopyralid 8 g ae/ha alone) is listed as 76%. In test [6] (aminopyralid 8 g ae/ha alone), the “Visual Weed Control (%) LUDLI 11 DAA Obs” value stood at 73%.

For `O=C(O)COc1nc(Cl)c(Cl)cc1Cl` [Triclopyr, 2-[(3,5,6-trichloro-2-pyridinyl)oxy]acetic acid], the “Visual Weed Control (%) CYPIR 11 DAA Obs” value was determined as 0% in test [4] (triclopyr 24 g ae/ha alone) and 1% in test [4] (triclopyr 72 g ae/ha alone). For the same compound, the “Visual Weed Control (%) CYPIR 18 DAA Obs” value is recorded as 0% in test [4] (triclopyr 24 g ae/ha alone) and 6% in test [4] (triclopyr 48 g ae/ha alone). Besides, the “Visual Weed Control (%) ECLAL 11 DAA Obs” value in test [5] (triclopyr 24 g ae/ha alone) is 6%. For the same compound, the “Visual Weed Control (%) LUDLI 11 DAA Obs” value in test [6] (triclopyr 24 g ae/ha alone) is recorded as 5%. In test [1] (triclopyr 480 g ae/ha alone), the “Visual Weed Control (%) RUMOB 13 DAA Obs” value turned out to be 57%. In addition, the “Visual Weed Control (%) TAROF 13 DAA Obs” value in test [2] (TAROF, triclopyr 240 g ae/ha alone) came to 27%; in test [2] (TAROF, triclopyr 960 g ae/ha alone) it was 38%. Further, the “Visual Weed Control (%) TAROF 122 DAA Obs” value in test [2] (triclopyr 240 g ae/ha alone) is 0- %. Further, the “Visual Weed Control (%) TAROF 178 DAA Obs” value in test [2] (triclopyr 480 g ae/ha alone) is 0%. Further, in test [2] (triclopyr 960 g ae/ha alone), the “Visual Weed Control (%) TAROFI 178 DAA Obs” value is 47%. For the same compound, in test [2] (378 DAA, TAROF, triclopyr 240 g ae/ha alone), the “Visual Weed Control (%) TAROF 378 DAA Obs” value is recorded as 10%. Moreover, in test [2] (378 DAA, TAROF, triclopyr 480 g ae/ha alone (value printed in Exp* column)), the “Visual Weed Control (%) TAROF 378 DAA Exp*” value stood at 30%. Moreover, the “Visual Weed Control (%) URTDI 342 DAA Obs” value in test [3] (triclopyr 240 g ae/ha alone) was 33%.

Source of the values: US20140073505A1, “HERBICIDAL COMPOSITIONS COMPRISING AMINOPYRALID AND TRICLOPYR” (DOW AGROSCIENCES LLC, priority 2012, published 2014).
